Legend:
cAMP-PDE = details: in vitro; cited from earlier work
[1] = system: skin irritation caused by Balsam of Peru; experiment: Balsam of Peru skin irritation test on ventral forearms of panelists (skin redness, Minolta Chromameter); format: in vivo, human; details: topical; for Percent Reduction in the onset of irritation: Example 2, before Balsam of Peru
Description: Eight female volunteer panelists between the ages of 21 and 55 having a history of skin sensitivity to Balsam of Peru are chosen for a study. […] The panelists have a history of skin reactivity to Balsam of Peru which manifests itself in the form of an immediate urticaria reaction. The test sites on the ventral forearms of the panelists are devoid of warts, nevi, moles, sunburn, suntan, scars and active dermal lesions. Pregnant or lactating volunteers are excluded. […] The composition is given time, about 20 minutes, to absorb into the skin on the forearm. Next, an irritant, Balsam of Peru, 8.00 percent in petrolatum, is applied to the test area of the skin and when redness appears within 30 to 40 minutes after application, Balsam of Peru is wiped off with a wet towel. Skin redness is measured with the Minolta Chromameter. Skin irritation is measured in terms of an increase in skin redness measured using a Minolta Chromameter and compared with a negative and a positive control. The positive control is the color of the skin treated solely with Balsam of Peru, and the negative control is the color of the skin treated with a cola […] solution in 10% hydroalcohol (1:1).

cGMP-PDE = details: in vitro; cited from earlier work
[2] = system: inflammatory parameters in atopic dermatitis; details: in vivo; cited from earlier work

Row | Compound | Percent Reduction in the onset of irritation ([1]; 1% concentration) [%] | other results
1 | Nc1ncnc2c1ncn2C1CC2OP(=O)(O)OCC2O1 (centres unmarked) [2′-deoxy cAMP, 2′-deoxy adenosine 3 ′5′ cyclic monophosphate] |  | inhibition of cAMP-PDE (cAMP-PDE): specific and potent in vitro inhibitors; reduction in the onset of irritation ([1]; Example 1, 0.5 percent in magnesium buffer, applied about 20 minutes before 8.00 percent Balsam of Peru in petrolatum, eight female panelists): 74%; Percent Reduction in the onset of irritation ([1]; 0.5% concentration): 71%
2 | Nc1nc2c(ncn2[C@H]2C[C@@H]3OP(=O)(O)OC[C@H]3O2)c(=O)[nH]1 [2′-deoxy cGMP] |  | inhibition of cGMP-PDE (cGMP-PDE): specific and potent in vitro inhibitors
3 | COc1ccc(C2CNC(=O)NC2)cc1O[C@H]1C[C@@H]2CC[C@H]1C2 [CP80,633] |  | reduction of inflammatory parameters [2]: significant reduction of inflammatory parameters
4 | Cn1c(=O)c2c(ncn2C)n(C)c1=O [Caffeine, caffeine] | 45 | 
5 | CC(C)Cn1c(=O)n(C)c(=O)c2[nH]cnc21 [IBMX, 3-isobutyl 1-methyl xanthine] | 66 | 
6 | CC(=O)CCCCn1c(=O)c2c(ncn2C)n(C)c1=O [Pentoxifylline, pentoxifylline] | 50 | 
7 | CCCCOc1cc(CC2CNC(=O)N2)ccc1OC (centres unmarked) [Ro-12-1724] | 57 | 
8 | COc1ccc(C2CNC(=O)C2)cc1OC1CCCC1 (centres unmarked) [Rolipram] | 69 | 
9 | O=c1[nH]cnc2c1ncn2[C@@H]1O[C@@H]2COP(=O)(O)O[C@H]2[C@H]1O [cIMP, cyclic IMP] | 42 | 

Source: patent US6531140B2, “Anti-irritant compositions containing a cyclic nucleotide” (E-L Management, priority 1999, dated 2003)
